The test system of the assay is Human Colon Carcinoma Cells HCT116. The assay is described as follows: Proteome changes in protein abundance upon drug treatment, 3-channel pI-multiplexing LC MS/MS. The conditions noted are these: 45 nM Methotrexate for 48 h vs 0.01% DMSO control, p<0.05, 570 proteins quantified, 3 biological replicates. The format is cell-based. How it is done:
A three-channel isoelectric point-based multiplexing was applied for the analysis of proteome changes in protein abundance upon drug treatment, using the following procedure:
Human Colon Carcinoma Cells HCT116 were cultured at 37° C. with 5% CO2 in high-glucose Dulbecco's Modified Eagle's Medium (DMEM, Thermo Fisher Scientific) supplemented with 10% fetal bovine serum (Gibco) and 1% penicillin/streptomycin (Gibco). The cells were treated for 48 h with 45 nM Methotrexate in 0.01% dimethyl sulfoxide (DMSO). As a control experiment, cells were treated with 0.01% DMSO. The medium containing the drug (or 0.01% DMSO for the control) was replaced each 24 h by fresh medium. A total of 3 control samples and 3 treated samples were produced.
Cells (1 million cells per replicate sample) were washed twice with PBS (1 mL) and resuspended in 300 μL of lysis buffer (3% SDC, 20 mM EPPS, pH 8.5). The total protein concentration was measured using the BCA protein assay kit (Pierce) in accordance with the manufacturer's protocol. […]
6. Samples were analyzed together within MaxQuant (1% FDR and match between runs) and Quanty quantification software (1% FDR). Isoelectric point calculations were in-silico calculated as described in Pirmoradian M et al 2014. Proteins containing at least 1 peptide on each pI-channel were selected for quantification.

For the compound `CN(Cc1cnc2nc(N)nc(N)c2n1)c1ccc(C(=O)N[C@@H](CCC(=O)O)C(=O)O)cc1` [Methotrexate], the “number of proteins that demonstrated a statistical difference between the control and treated” value came to 4.

The values above are taken from US20200408775A1, “APPARATUS AND METHOD FOR MULTIPLEXED PROTEIN QUANTIFICATION” (BIOMOTIF AB, priority 2018, published 2020).
